Experimental data reported in patent US12577272B2, “CD73 inhibitors” (ORIC Pharmaceuticals, Inc., priority 2019, dated 2026).

Molecular target: T1, CD73 (Homo sapiens, UniProt P21589)
T1 sequence (P21589 27-549): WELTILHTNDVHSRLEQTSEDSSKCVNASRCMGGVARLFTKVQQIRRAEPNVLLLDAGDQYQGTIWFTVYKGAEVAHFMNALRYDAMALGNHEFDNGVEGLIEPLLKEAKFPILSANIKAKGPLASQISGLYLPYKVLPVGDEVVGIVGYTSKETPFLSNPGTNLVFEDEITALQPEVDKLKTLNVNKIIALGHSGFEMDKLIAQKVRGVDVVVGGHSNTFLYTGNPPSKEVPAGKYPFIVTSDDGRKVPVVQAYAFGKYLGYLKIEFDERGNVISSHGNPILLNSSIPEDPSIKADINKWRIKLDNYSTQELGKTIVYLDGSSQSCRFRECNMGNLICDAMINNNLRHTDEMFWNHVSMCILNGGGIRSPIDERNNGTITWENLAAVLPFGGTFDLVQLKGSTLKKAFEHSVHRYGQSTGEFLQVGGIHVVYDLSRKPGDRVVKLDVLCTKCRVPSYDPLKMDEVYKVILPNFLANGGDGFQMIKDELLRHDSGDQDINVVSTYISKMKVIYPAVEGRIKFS
Assay: Biochemical Assay: inhibition of CD73 activity (AMP hydrolysis, Malachite Green readout)
Details: CD73 0.3208 nM, AMP 15 μM, 25 mM Tris-HCl pH 7.4, 10 min reaction at RT; read-out: CD73_Biochem
Protocol: Example A1: Biochemical Assay
Assay Reaction Conditions
• Assay Volume: 70 μl • Reaction Volume: 50 μl • CD73: 0.3208 nM • AMP: 15 μM • Assay Buffer: 2 5 mM Tris-HCL, pH 7.4, 0.01% Brij-35, 0.01% BSA, 5 mM MgCl2 Assay Procedure:
Made dose titration of testing compounds in assay buffer, 10 points ½ log titrations in duplicates starting at 100 μM.
Added 25 μl of CD73 to each well for a final concentration of 320 pM.
Incubated at RT for 15 min.
Added 25 μl of AMP to each well for a final concentration of 15 μM.
Incubated at RT for 10 min.
Added 10 μl of Malachite Green Reagent A, incubate at RT for 10 min.
Added 10 μl of Malachite Green Reagent B, incubate at RT for 45 min.
Read the Absorbance on Envision plate reader using excitation filter: Cy5 […].
The ability of the compounds disclosed herein to inhibit CD73 activity was quantified and the respective IC50 values were determined. Table 2 provides the biochemical IC50 values of compounds disclosed herein.

Q: How did the IC50 turn out when `COCCOCC(COCc1nnn[nH]1)(OC[C@H]1O[C@@H](n2ncc3c(NC4CCCC4)nc(Cl)nc32)[C@H](O)[C@@H]1O)P(=O)(O)O` (single isomer, unassigned) [Example 2] was run?
A: ≤ 10 nM
